In ChEMBL document CHEMBL1139695, “Development of pyrimidine-based inhibitors of Janus tyrosine kinase 3” (Bioorg Med Chem Lett, 2006):

Columns and labels:
TF-1 [1] = assay: cells; conditions: Homo sapiens
Description: Inhibition of IL4-induced proliferation of TF1 cells

TF-1 [2] = assay: cells; conditions: Homo sapiens; remark: listed apart in the source
Description: Inhibition of IL3-induced proliferation of TF1 cells

IC50 (TF-1 [1]): 335 nM | IC50 (TF-1 [2]): 635 nM
Compound: C[C@H](Nc1ccnc(-n2cnc3ccncc32)n1)c1ccc(F)cc1
